According to patent publication US5296496A, “2-saccharinylmethyl phosphates, phosphonates and phosphinates useful as proteolytic enzyme inhibitors and compositions and method of use thereof” (Sterling Winthrop Inc., priority 1992, dated 1994):

Biological target: T1, human leukocyte elastase (HLE) (Homo sapiens, UniProt P08246)
T1 sequence (P08246 30-267): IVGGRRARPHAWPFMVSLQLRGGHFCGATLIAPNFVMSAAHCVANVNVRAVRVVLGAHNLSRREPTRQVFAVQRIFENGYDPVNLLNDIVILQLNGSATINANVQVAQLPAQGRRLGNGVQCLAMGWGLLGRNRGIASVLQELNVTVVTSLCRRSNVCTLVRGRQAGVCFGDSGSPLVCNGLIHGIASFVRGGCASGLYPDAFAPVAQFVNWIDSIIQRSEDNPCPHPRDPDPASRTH
Experiment: Inhibition constant Ki* of human leukocyte elastase (HLE), calculated as koff/kon
Type: biochemical
Conditions: unit inferred
Experimental: Thus, instead of measuring a Ki, a Ki * is calculated which is defined as the ratio of the koff /kon, the rate of reactivation of the enzyme to the rate of inactivation of the enzyme. The values of koff and kon are measured and Ki * is then calculated.
The rate of inactivation, kon, of enzymatic activity was determined for the compounds tested by measuring the enzyme activity of an aliquot of the respective enzyme as a function of time after addition of the test compound. […] The rate of inactivation is then equal to [formula] where [I] is the concentration of the inhibiting compound.
The reactivation constant, koff, is similarly determined, and the inhibition constant, Ki *, is then calculated as

With `CCOP(=O)(OCC)OCN1C(=O)c2c(C(C)C)cc(OC)cc2S1(=O)=O` [Example 13] the Ki was 0.035 nM.
